# Results published in US7157083B2, “Compositions and methods for treating retroviral infections” (priority 1998, dated 2007).
# System: clinical isolate ROJO (low passage HIV-1) in human PBMCs
# Experiment: Study 1 PBMC assay: reverse transcriptase activity after ROJO infection (Treatments A, B, C)
# Type: cell-based
# Method: Percent virus control (% VC) in the following tables is the mean RT activity (cpm) as a percentage of a virus control. Percent cell control (% CC) is the mean XTT absorbance as a percentage of a cell control.
# Peripheral blood monocular cells (PBMCs) are obtained from normal hepatitis and HIV-1 negative donors by ficoll hypaque gradient separation. Briefly, anti-coagulated blood is diluted 1:1 with Dulbecco's phosphate buffered saline without Ca^++ and Mg^++ (PBS) and layered over 14 mL of Lymphocyte separation media in a 50 ml centrifuge tube. Tubes are then centrifuged for 30 minutes at 600× g. Banded PBLs are gently aspirated from the resulting interface and subsequently washed 2× with PBS by low speed centrifugation. The mononuclear cells are counted, viability determined by Trypan Blue dye exclusion and resuspended in RPM1640 medium supplemented with 15% FBS (heat inactivated), 2 mM L-glutamine, 100 U/mL penicillin, 100 μg/mL streptomycin, and 10 μg/mL gentamycin with 2 μg/mL phytohemagluttin (PHA) at 1×10^6 cells/mL. The cells are cultured for 48 to 72 h at 37° C., 5% CO2 Following incubation, cells are collected by centrifugation, washed and resuspended in RPMI 1640 supplemented with 15% FBS (heat inactivated), 2 Mm L-glutamine, 100 U/mL penicillin, 100 μg/mL streptomycin, and 10 μg/mL gentamycin with 20 U/mL recombinant IL-2 (R & D Systems, Minneapolis, Minn.). IL-2 is included in the culture medium to maintain the cell division initiated by the PHA mitogenic stimulation. The cultures are then maintained until use by ½ culture volume change with fresh IL-2 containing medium every 3 days.
# Human peripheral blood mononuclear cells from a minimum of 2 donors, that have been blasted with PHA and IL-2, are counted, viability determined by Trypan Blue dye exclusion and mixed in equal ratios. Pooled donors are used to minimize the variability observed between individual donors which results from quantitative and qualitative differences in HIV infection and overall response to the PHA and IL-2 of primary lymphocyte populations. The cells are resuspended at 1×10^6 cells/mL in RPMI 1640 without phenol red supplemented with 15% Fetal Bovine Serum (heat inactivated), 2 mM L-glutamine, 100 U/mL penicillin, 100 μg/mL streptomycin, 10 μg/mL gentamycin and IL-2 (20 U/mL, R&D Systems, Minneapolis, Minn.). Fifty microliters of cells are then distributed to the inner 60 wells of a 96 well round bottom Microtiter culture plate in a standard format developed by the Infectious Disease Research department of Southern Research Institute. Each plate contains cell control wells (cells only), virus control wells (cell plus virus), and experimental wells (drug plus cells plus virus).
# Using an in-house computer program, IC50 (50% inhibition of virus replication), TC50 (50% reduction in cell viability) and a therapeutic index (TI, […]) were determined. AZT was used as a relevant positive control compound for the individual assays.
# This study compares the ability of hyaluronidase to AZT to lower viral replication as measured by reverse transcriptase levels. RT was measured on days 7, 14, and 21. Three different treatment regimens were used in the comparative study (Treatments A, B and C).
# Treatment A. Normal mixed PHA blasted human PBMCs (5×10e4/well) were pretreated with drug every 48 hours for 3 doses. On day 6 of pretreatment, cells were infected with clinical isolate ROJO. 48 hours post infection, treatment with drugs continued for an additional 3 treatments. Samples for assay were collected on D7 (day 7), 14, 21, post infection, frozen and later analyzed for reverse transcriptase.
# Treatment B. Normal mixed PHA blasted human PBMCs (as above) were plated in 96 wells and allowed to incubate for 48 hours (cells were set at same time as treatment A from same pool). Drug pretreatment started on day 2 and was repeated on day 4. On day 6, cell were infected as in treatment A, with concurrent addition of drug for a total of 3 treatments. […]
compound,measurement,setting,value
"Cc1cn([C@H]2C[C@H](N=[N+]=[N-])[C@@H](CO)O2)c(=O)[nH]c1=O [AZT, reference compound]",RT activity % VC,"Treatment A, 0.00017 μM, Day 7",47.3%
same,RT activity % VC,"Treatment A, 0.00017 μM, Day 14",115.4%
same,RT activity % VC,"Treatment A, 0.00017 μM, Day 21",164.5%
same,RT activity % VC,"Treatment A, 0.00054 μM, Day 7",19.3%
same,RT activity % VC,"Treatment A, 0.00054 μM, Day 14",99.8%
same,RT activity % VC,"Treatment A, 0.00054 μM, Day 21",141.5%
same,RT activity % VC,"Treatment A, 0.00168 μM, Day 7",25.1%
same,RT activity % VC,"Treatment A, 0.00168 μM, Day 14",74.2%
same,RT activity % VC,"Treatment A, 0.00168 μM, Day 21",135.6%
same,RT activity % VC,"Treatment A, 0.00524 μM, Day 7",10.2%
same,RT activity % VC,"Treatment A, 0.00524 μM, Day 14",78.3%
same,RT activity % VC,"Treatment A, 0.00524 μM, Day 21",155.1%
same,RT activity % VC,"Treatment A, 0.01638 μM, Day 7",11.6%
same,RT activity % VC,"Treatment A, 0.01638 μM, Day 14",57.9%
same,RT activity % VC,"Treatment A, 0.01638 μM, Day 21",129.5%
same,RT activity % VC,"Treatment A, 0.0512 μM, Day 7",3.0%
same,RT activity % VC,"Treatment A, 0.0512 μM, Day 14",40.7%
same,RT activity % VC,"Treatment A, 0.0512 μM, Day 21",134.8%
same,RT activity % VC,"Treatment A, 0.16 μM, Day 7",2.7%
same,RT activity % VC,"Treatment A, 0.16 μM, Day 14",40.3%
same,RT activity % VC,"Treatment A, 0.16 μM, Day 21",126.3%
same,RT activity % VC,"Treatment A, 0.5 μM, Day 7",2.3%
same,RT activity % VC,"Treatment A, 0.5 μM, Day 14",21.4%
same,RT activity % VC,"Treatment A, 0.5 μM, Day 21",78.3%
same,RT activity % VC,"Treatment A, 5.5E-05 μM, Day 7",77.0%
same,RT activity % VC,"Treatment A, 5.5E-05 μM, Day 14",100.4%
same,RT activity % VC,"Treatment A, 5.5E-05 μM, Day 21",159.7%
same,RT activity % VC,"Treatment B, 0.00017 μM, Day 7",43.6%
same,RT activity % VC,"Treatment B, 0.00017 μM, Day 14",80.8%
same,RT activity % VC,"Treatment B, 0.00017 μM, Day 21",129.8%
same,RT activity % VC,"Treatment B, 0.00054 μM, Day 7",34.2%
same,RT activity % VC,"Treatment B, 0.00054 μM, Day 14",70.1%
same,RT activity % VC,"Treatment B, 0.00054 μM, Day 21",111.8%
same,RT activity % VC,"Treatment B, 0.00168 μM, Day 7",10.7%
same,RT activity % VC,"Treatment B, 0.00168 μM, Day 14",57.5%
same,RT activity % VC,"Treatment B, 0.00168 μM, Day 21",153.5%
same,RT activity % VC,"Treatment B, 0.00524 μM, Day 7",9.3%
same,RT activity % VC,"Treatment B, 0.00524 μM, Day 14",51.0%
same,RT activity % VC,"Treatment B, 0.00524 μM, Day 21",109.0%
same,RT activity % VC,"Treatment B, 0.01638 μM, Day 7",9.6%
same,RT activity % VC,"Treatment B, 0.01638 μM, Day 14",58.0%
same,RT activity % VC,"Treatment B, 0.01638 μM, Day 21",133.9%
same,RT activity % VC,"Treatment B, 0.0512 μM, Day 7",5.4%
same,RT activity % VC,"Treatment B, 0.0512 μM, Day 14",28.5%
same,RT activity % VC,"Treatment B, 0.0512 μM, Day 21",158.0%
same,RT activity % VC,"Treatment B, 0.16 μM, Day 7",3.9%
same,RT activity % VC,"Treatment B, 0.16 μM, Day 14",25.7%
same,RT activity % VC,"Treatment B, 0.16 μM, Day 21",93.8%
same,RT activity % VC,"Treatment B, 0.5 μM, Day 7",5.4%
same,RT activity % VC,"Treatment B, 0.5 μM, Day 14",9.5%
same,RT activity % VC,"Treatment B, 0.5 μM, Day 21",87.5%
same,RT activity % VC,"Treatment B, 5.5E-05 μM, Day 7",90.9%
same,RT activity % VC,"Treatment B, 5.5E-05 μM, Day 14",97.0%
same,RT activity % VC,"Treatment B, 5.5E-05 μM, Day 21",163.3%
same,RT activity % VC,"Treatment C, 0.00017 μM, Day 7",67.5%
same,RT activity % VC,"Treatment C, 0.00017 μM, Day 14",92.9%
same,RT activity % VC,"Treatment C, 0.00017 μM, Day 21",110.1%
same,RT activity % VC,"Treatment C, 0.00054 μM, Day 7",73.6%
same,RT activity % VC,"Treatment C, 0.00054 μM, Day 14",92.3%
same,RT activity % VC,"Treatment C, 0.00054 μM, Day 21",106.2%
same,RT activity % VC,"Treatment C, 0.00168 μM, Day 7",45.4%
same,RT activity % VC,"Treatment C, 0.00168 μM, Day 14",125.4%
same,RT activity % VC,"Treatment C, 0.00168 μM, Day 21",119.1%
same,RT activity % VC,"Treatment C, 0.00524 μM, Day 7",28.4%
same,RT activity % VC,"Treatment C, 0.00524 μM, Day 14",74.6%
same,RT activity % VC,"Treatment C, 0.00524 μM, Day 21",104.7%
same,RT activity % VC,"Treatment C, 0.01638 μM, Day 7",22.1%
same,RT activity % VC,"Treatment C, 0.01638 μM, Day 14",62.9%
same,RT activity % VC,"Treatment C, 0.01638 μM, Day 21",119.2%
same,RT activity % VC,"Treatment C, 0.0512 μM, Day 7",17.0%
same,RT activity % VC,"Treatment C, 0.0512 μM, Day 14",70.5%
same,RT activity % VC,"Treatment C, 0.0512 μM, Day 21",89.2%
same,RT activity % VC,"Treatment C, 0.16 μM, Day 7",10.3%
same,RT activity % VC,"Treatment C, 0.16 μM, Day 14",38.1%
same,RT activity % VC,"Treatment C, 0.16 μM, Day 21",72.0%
same,RT activity % VC,"Treatment C, 0.5 μM, Day 7",8.9%
same,RT activity % VC,"Treatment C, 0.5 μM, Day 14",26.8%
same,RT activity % VC,"Treatment C, 0.5 μM, Day 21",90.1%
same,RT activity % VC,"Treatment C, 5.5E-05 μM, Day 7",88.6%
same,RT activity % VC,"Treatment C, 5.5E-05 μM, Day 14",109.2%
same,RT activity % VC,"Treatment C, 5.5E-05 μM, Day 21",198.4%
